This data set can be described thus: Fluorescence properties of the new compounds (excitation and emission wavelengths). The data set is classed as physicochemical. As to conditions: free compound.
Consider `CC(=O)NC1CC(C(=O)NC2CC(C(=O)NC3CC(C(N)=O)N(C(=O)CNC(=O)c4c5ccccc5nc5ccccc45)C3)N(C(=O)CNC(=O)c3c4ccccc4nc4c3[nH]c3ccccc34)C2)N(C(=O)CNC(=O)c2c3ccccc3nc3ccccc23)C1` (stereo not drawn) [Example 58, N^4-Acetyl-4-amino-{2-(acridine-9-carboxamide)acetyl}prolinyl-4-amino-{2-(10H-indolo[3,2-b]quinoline-11-carboxamide)acetyl}proliny-4-amino-{2-(acridine-9-carboxamide)acetyl}prolinamide], for which the “Fluorescence Excitation (nm)” value turned out to be 275 nm and the “Fluorescence emission (nm)” value worked out at 503 nm.

Take `CC(OP(O)(=S)OC[C@@H](O)CNc1c2nc3ccccc3c-2n(C)c2ccccc12)C(CO)NC(=O)c1c2ccccc2nc2ccccc12` (stereo partly drawn) [Example 32, O-{2-N-(Acridine-9-carbamoyl)-(1-hydroxybut-3-yl)} and O-}3-(5-methyl-5H-indolo[3,2b]quinolin-11-ylamino-(S)-(2-hydroxyprop-3-yl} phosphorotioate]: the “Fluorescence Excitation (nm)” value was 359 nm and the “Fluorescence emission (nm)” value is 448 nm.

Regarding `Cn1c2c3ccccc3nc-2c(NC[C@H](O)CO)c2ccccc21` [Compound 5b, (S)-3-(5-Methyl-5H-indolo[3,2b]quinolin-11-ylamino)propane-1,2-diol], the “Fluorescence Excitation (nm)” value was 340 nm and the “Fluorescence emission (nm)” value is 469 nm.

`CC(=O)NC1CC(C(=O)NC2CC(C(=O)NC3CC(C(=O)NC4CC(C(=O)NC5CC(C(=O)NC6CC(C(=O)NC7CC(C(N)=O)N(C(=O)CNC(=O)c8c9ccccc9nc9c8[nH]c8ccccc89)C7)N(C(C)=O)C6)N(C(C)=O)C5)N(C(=O)CNC(=O)c5cc(-c6ccccc6)nc6ccccc56)C4)N(C(C)=O)C3)N(C(C)=O)C2)N(C(=O)CNC(=O)c2c3ccccc3nc3ccccc23)C1` (stereo not drawn) [Example 67]: the “Fluorescence Excitation (nm)” value was 265 nm and the “Fluorescence emission (nm)” value came out at 451 nm.

Turning to `CC(=O)NC1CC(C(N)=O)N(C(=O)CNC(=O)c2c3ccccc3nc3ccccc23)C1` (stereo not drawn) [Example 50, N-[2-(Acridine-9-carboxamide)acetyl]-4-N-acetamidoprolinamide], the “Fluorescence Excitation (nm)” value is 282 nm and the “Fluorescence emission (nm)” value came out at 439 nm.

With `CC(O)C(CO)NC(=O)CNC(=O)c1c2ccccc2nc2ccccc12` (stereo not drawn) [Compound 2d, N-((1,3-dihydroxybutan-2-ylcarbamoyl)methyl)acridine-9-carboxamide], the “Fluorescence Excitation (nm)” value stood at 247 nm and the “Fluorescence emission (nm)” value is given as 440 nm.

As to `CC(=O)N1CC(NC(=O)CNC(=O)c2c3ccccc3nc3ccccc23)C[C@H]1C(=O)N1CC(NC(=O)CNC(=O)c2c3ccccc3nc3ccccc23)C[C@H]1C(N)=O` (stereo partly drawn) [Example 52, N^4-Acetyl-4-amino-{2-(acridine-9-carboxamide)acetyl}prolinyl-4-amino-{2-(acridine-9-carboxamide)acetyl}prolinamide], the “Fluorescence Excitation (nm)” value came out at 274 nm and the “Fluorescence emission (nm)” value came to 450 nm.

Regarding `CC(=O)NC1CC(C(=O)NC2CC(C(=O)NC3CC(C(=O)NC4CC(C(=O)NC5CC(C(=O)NC6CC(C(=O)NC7CC(C(N)=O)N(C(=O)CNC(=O)c8cc(-c9ccccc9)nc9ccccc89)C7)N(C(C)=O)C6)N(C(C)=O)C5)N(C(=O)CNC(=O)c5c6ccccc6nc6ccccc56)C4)N(C(C)=O)C3)N(C(C)=O)C2)N(C(=O)CNC(=O)c2c3ccccc3nc3c2[nH]c2ccccc23)C1` (stereo not drawn) [Example 66, N^4-Acetyl-4-amino-{2-(10H-indolo[3,2-b]quinoline-11-carboxamide)acetyl}prolinyl-4-aminoprolinyl-4-aminoprolinyl-4-amino-{2-(acridine-9-carboxamide)acetyl}prolinyl-4-aminoprolinyl-4-aminoprolinyl-4-amino-[(2-phenyl-quinoline-4-carboxamide)acetyl]prolinamide], the “Fluorescence Excitation (nm)” value is listed as 269 nm and the “Fluorescence emission (nm)” value was found to be 432 nm.

Consider `CC(O)C(COP(=O)(O)OC(C)C(COP(=O)(O)OC(C)C(CO)NC(=O)c1c2ccccc2nc2ccccc12)NC(=O)c1c2ccccc2nc2c1[nH]c1ccccc12)NC(=O)CNC(=O)c1c2ccccc2nc2ccccc12` (stereo not drawn) [Example 38, O-{2-N-(Acridine-9-carbamoyl)-(1-hydroxybut-3-yl)} phosphate (3-1) O-{2-N-(10H-indolo[3,2-d]quinoline-11-carbamoyl)-3-oxybut-1-yl} phosphate (3-1) O-{2-N-(acridine-9-carboxamido)acetamidol-(3-hydroxybut-1-yl)}], for which the “Fluorescence Excitation (nm)” value stood at 359 nm and the “Fluorescence emission (nm)” value is given as 438 nm.

Take `CC(=O)N[C@@H](CCCNC(=O)CNC(=O)c1c2ccccc2nc2ccccc12)C(=O)N[C@@H](CCCNC(=O)CNC(=O)c1c2ccccc2nc2c1[nH]c1ccccc12)C(=O)N[C@@H](CCCNC(=O)CNC(=O)c1c2ccccc2nc2c1[nH]c1ccccc12)C(N)=O` [Example 70, N^4-Acetyl-5-N-{2-(acridine-9-carboxamide)acetyl}ornithinyl-5-N-{2-(10H-indolo[3,2-b]quinoline-11-carboxamide)acetyl}ornithinyl-5-N-{2-(10H-indolo[3,2-b]quinoline-11-carboxamide)acetyl}ornithinamide]: the “Fluorescence Excitation (nm)” value is 248 nm.

Take `CC(=O)N[C@@H](CCCNC(=O)CNC(=O)c1c2ccccc2nc2ccccc12)C(=O)N[C@@H](CCCNC(=O)CNC(=O)c1c2ccccc2nc2ccccc12)C(=O)N[C@@H](CCCNC(=O)CNC(=O)c1c2ccccc2nc2ccccc12)C(N)=O` [Example 68, N^4-Acetyl-5-N-{2-(acridine-9-carboxamide)acetyl}ornithinyl-5-N-{2-(acridine-9-carboxamide)acetyl}ornithinyl-5-N-{2-(acridine-9-carboxamide)acetyl}ornithinamide]: the “Fluorescence Excitation (nm)” value is recorded as 360 nm and the “Fluorescence emission (nm)” value was found to be 435 nm.

Consider `CC(O)C(COP(=O)(O)OC(C)C(CO)NC(=O)c1cc(-c2ccccc2)nc2ccccc12)NC(=O)c1c2ccccc2nc2ccccc12` (stereo not drawn) [Example 34, O-{2-N-(2-phenylquinoline-4-carbamoyl-1-hydroxybutan-3-yl)} and O-{2-N-(acridine-9-carbamoyl)-3-hydroxybut-1-yl} phosphate], for which the “Fluorescence Excitation (nm)” value is recorded as 252 nm and the “Fluorescence emission (nm)” value is given as 437 nm.

For the compound `CC(=O)NC1CC(C(=O)NC2CC(C(=O)NC3CC(C(N)=O)N(C(=O)CNC(=O)c4c5ccccc5nc5ccccc45)C3)N(C(=O)CNC(=O)c3c4ccccc4nc4ccccc34)C2)N(C(=O)CNC(=O)c2c3ccccc3nc3ccccc23)C1` (stereo not drawn) [Example 56, N^4-Acetyl-4-amino-{2-(acridine-9-carboxamide)acetyl}prolinyl-4-amino-{2-(acridine-9-carboxamide)acetyl}prolinyl-4-amino-{2-(acridine-9-carboxamide)acetyl}prolinamide], the “Fluorescence Excitation (nm)” value amounted to 275 nm and the “Fluorescence emission (nm)” value is 440 nm.

Turning to `CC(=O)NC1CC(C(=O)NC2CC(C(=O)NC3CC(C(=O)NC4CC(C(=O)NC5CC(C(N)=O)N(C(=O)CNC(=O)c6cc(-c7ccccc7)nc7ccccc67)C5)N(C(C)=O)C4)N(C(=O)CNC(=O)c4c5ccccc5nc5ccccc45)C3)N(C(C)=O)C2)N(C(=O)CNC(=O)c2c3ccccc3nc3c2[nH]c2ccccc23)C1` (stereo not drawn) [Example 64], the “Fluorescence Excitation (nm)” value was 347 nm and the “Fluorescence emission (nm)” value was determined as 488 nm.

In the case of `CC(=O)NC1CC(C(=O)NC2CC(C(N)=O)N(C(=O)CNC(=O)c3c4ccccc4nc4ccccc34)C2)N(C(=O)CNC(=O)c2c3ccccc3nc3c2[nH]c2ccccc23)C1` (stereo not drawn) [Example 54, 10H-Indolo[3,2-b]quinoline-11-carboxylic acid {2-[4-acetylamino-2-(1-{2-[(acridine-9-carbonyl)-amino]-acetyl}-5-carbamoyl-pyrrolidin-3-ylcarbamoyl)-pyrrolidin-1-yl]-2-oxo-ethyl}-amide], the “Fluorescence Excitation (nm)” value is on record as 273 nm and the “Fluorescence emission (nm)” value was found to be 498 nm.

Regarding `CC(O)C(COP(=O)(O)OC(C)C(CO)NC(=O)c1c2ccccc2nc2ccccc12)NC(=O)c1cc(-c2ccccc2)nc2ccccc12` (stereo not drawn) [Example 36, O-{2-N-(acridine-9-carbamoyl)-1-hydroxybut-3-yl} and O-{2-N-(2-phenylquinoline-4-carbamoyl-3-hydroxybutan-1-yl)} phosphate], the “Fluorescence Excitation (nm)” value is 252 nm and the “Fluorescence emission (nm)” value was found to be 403 nm.

Consider `CC(=O)N1CC(NC(=O)CNC(=O)c2c3ccccc3nc3ccccc23)C[C@H]1C(=O)N1CC(NC(=O)CNC(=O)c2c3ccccc3nc3c2[nH]c2ccccc23)C[C@H]1C(=O)N1CC(NC(=O)CNC(=O)c2c3ccccc3nc3c2[nH]c2ccccc23)C[C@H]1C(N)=O` (stereo partly drawn) [Example 63, N^4-Acetyl-4-amino-{2-(acridine-9-carboxamide)acetyl}prolinyl-4-amino-{2-(10H-indolo[3,2-b]quinoline-11-carboxamide)acetyl}proliny-4-amino-{2-(10H-indolo[3,2-b]quinoline-11-carboxamide)acetyl}prolinamide], for which the “Fluorescence Excitation (nm)” value is on record as 272 nm and the “Fluorescence emission (nm)” value amounted to 503 nm.

For the compound `CC(O)C(CO)NC(=O)c1c2ccccc2nc2ccccc12` (stereo not drawn) [Compound 2b, N-(1,3-dihydroxybutan-2-yl)acridine-9-carboxamide], the “Fluorescence Excitation (nm)” value is 358 nm and the “Fluorescence emission (nm)” value is reported as 439 nm.

On to `CC(O)C(CO)NC(=O)c1c2ccccc2nc2c1[nH]c1ccccc12` (stereo not drawn) [Compound 2a, N-(1,3-dihydroxybutan-2-yl)-10H-indolo[3,2-d]quinoline-11-carboxamide], for which the “Fluorescence Excitation (nm)” value turned out to be 346 nm and the “Fluorescence emission (nm)” value worked out at 402 nm.

Take `CC(=O)N[C@@H](CCCNC(=O)CNC(=O)c1c2ccccc2nc2c1[nH]c1ccccc12)C(=O)N[C@@H](CCCNC(=O)CNC(=O)c1c2ccccc2nc2c1[nH]c1ccccc12)C(=O)N[C@@H](CCCNC(=O)CNC(=O)c1c2ccccc2nc2c1[nH]c1ccccc12)C(N)=O` [Example 71, N^4-Acetyl-5-N-{2-(10H-indolo[3,2-b]quinoline-11-carboxamide)acetyl}ornithinyl-5-N-{2-(10H-indolo[3,2-b]quinoline-11-carboxamide)acetyl}ornithinyl-5-N-{2-(10H-indolo[3,2-b]quinoline-11-carboxamide)acetyl}ornithinamide]: the “Fluorescence Excitation (nm)” value was 338 nm and the “Fluorescence emission (nm)” value is recorded as 466 nm.

Source of the values: patent publication US20100129800A1, “POLYMERS AND THEIR USE AS FLUORESCENT LABELS” (priority 2007, published 2010).
